Results from PMC5218480 (PLoS ONE, 2017).

Test system: MV-4-11 cells
Assay: Gene expression microarray analysis (Affymetrix PrimeView) and GSEA
Type: cell-based, human
Set-up: RFU PODN (11730768_x_at) / Fold change /veh PODN (11730768_x_at) / RFU LINC00158 (11744669_a_at) / Fold change /veh LINC00158 (11744669_a_at) / RFU DUSP10 (11751237_a_at) / Fold change /veh DUSP10 (11751237_a_at) / RFU ID3 (11757404_x_at) / Fold change /veh ID3 (11757404_x_at) / RFU PLEKHG5 (11737974_s_at) / Fold change /veh PLEKHG5 (11737974_s_at) / RFU LRRC4B (11730491_at) / Fold change /veh LRRC4B (11730491_at) / RFU GIMAP4 (11747438_a_at) / Fold change /veh GIMAP4 (11747438_a_at) / RFU KRT8 (11758183_x_at) / Fold change /veh KRT8 (11758183_x_at) / RFU CNN1 (11734310_a_at) / Fold change /veh CNN1 (11734310_a_at) / RFU VPS37D (11726825_at) / Fold change /veh VPS37D (11726825_at) / RFU C10orf10 (11716522_x_at) / Fold change /veh C10orf10 (11716522_x_at) / RFU KIR2DL2 /// KIR2DL4 /// KIR2DL5A /// KIR2DL5B /// KIR2DS1 /// KIR2DS2 /// KIR2DS3 /// KIR2DS4 /// KIR3DL3 /// KIR3DL3 /// KIR3DS1 (11738374_at) / Fold change /veh KIR2DL2 /// KIR2DL4 /// KIR2DL5A /// KIR2DL5B /// KIR2DS1 /// KIR2DS2 /// KIR2DS3 /// KIR2DS4 /// KIR3DL3 /// KIR3DL3 /// KIR3DS1 (11738374_at) / RFU C1QL1 (11718748_at) / Fold change /veh C1QL1 (11718748_at) / RFU TMPRSS4 (11747572_a_at) / Fold change /veh TMPRSS4 (11747572_a_at) / RFU HAMP (11756126_x_at) / Fold change /veh HAMP (11756126_x_at) / RFU RNFT2 (11725882_a_at) / Fold change /veh RNFT2 (11725882_a_at) / RFU NR4A2 (11747474_a_at) / Fold change /veh NR4A2 (11747474_a_at) / RFU ABCC12 (11746883_a_at) / Fold change /veh ABCC12 (11746883_a_at) / RFU TMEM136 (11760407_x_at) / Fold change /veh TMEM136 (11760407_x_at) / RFU CLDN22 /// WWC2 (11732394_at) / Fold change /veh CLDN22 /// WWC2 (11732394_at) / RFU HLA-DPB1 (11760878_x_at) / Fold change /veh HLA-DPB1 (11760878_x_at) / RFU SPINT1 (11716480_a_at) / Fold change /veh SPINT1 (11716480_a_at) / RFU GAP43 (11754022_s_at) / Fold change /veh GAP43 (11754022_s_at) / RFU A4GNT (11735810_at) / Fold change /veh A4GNT (11735810_at) / RFU PRB3 (11715151_x_at) / Fold change /veh PRB3 (11715151_x_at) / RFU TUBB4B (11761932_at) / Fold change /veh TUBB4B (11761932_at) / RFU CAPN14 (11732068_a_at) / Fold change /veh CAPN14 (11732068_a_at) / RFU TMCC2 (11721928_a_at) / Fold change /veh TMCC2 (11721928_a_at) / RFU IRGQ (11745062_a_at) / Fold change /veh IRGQ (11745062_a_at) / RFU FAM174B (11720279_a_at) / Fold change /veh FAM174B (11720279_a_at) / RFU TMPRSS4 (11748680_a_at) / Fold change /veh TMPRSS4 (11748680_a_at) / RFU FAM212B (11763350_a_at) / Fold change /veh FAM212B (11763350_a_at) / RFU PLEKHG5 (11743358_a_at) / Fold change /veh PLEKHG5 (11743358_a_at) / RFU ZSCAN30 (11745921_a_at) / Fold change /veh ZSCAN30 (11745921_a_at) / RFU CMKLR1 (11741424_a_at) / Fold change /veh CMKLR1 (11741424_a_at) / RFU LOC101060620 /// MAPK8IP1 (11723275_at) / Fold change /veh LOC101060620 /// MAPK8IP1 (11723275_at) / RFU SPTSSB (11747773_x_at) / Fold change /veh SPTSSB (11747773_x_at) / RFU PRSS12 (11739890_at) / Fold change /veh PRSS12 (11739890_at) / RFU BIN1 (11741810_x_at) / Fold change /veh BIN1 (11741810_x_at) / RFU WNT11 (11732464_a_at) / Fold change /veh WNT11 (11732464_a_at) / RFU C10orf10 (11716521_a_at) / Fold change /veh C10orf10 (11716521_a_at) / RFU C5orf56 (11738089_at) / Fold change /veh C5orf56 (11738089_at) / RFU CYB561 (11721691_x_at) / Fold change /veh CYB561 (11721691_x_at) / RFU ANKRD19P (11752326_a_at) / Fold change /veh ANKRD19P (11752326_a_at) / RFU OR2T12 /// OR2T33 /// OR2T8 (11738714_s_at) / Fold change /veh OR2T12 /// OR2T33 /// OR2T8 (11738714_s_at) / RFU VCAN (11748164_a_at) / Fold change /veh VCAN (11748164_a_at) / RFU JSRP1 (11732532_at) / Fold change /veh JSRP1 (11732532_at) / RFU KRTAP10-11 (11738290_x_at) / Fold change /veh KRTAP10-11 (11738290_x_at) / RFU MYO3A (11730013_a_at) / Fold change /veh MYO3A (11730013_a_at) / RFU EBF3 (11725865_a_at) / Fold change /veh EBF3 (11725865_a_at) / RFU CAMK2N1 (11719241_x_at) / Fold change /veh CAMK2N1 (11719241_x_at) / RFU C5orf56 (11738088_a_at) / Fold change /veh C5orf56 (11738088_a_at) / RFU OLFML3 (11715873_a_at) / Fold change /veh OLFML3 (11715873_a_at) / RFU LOC100653217 /// NTM (11731650_a_at) / Fold change /veh LOC100653217 /// NTM (11731650_a_at) / RFU MAPK11 (11762145_a_at) / Fold change /veh MAPK11 (11762145_a_at) / RFU FIZ1 (11724087_x_at) / Fold change /veh FIZ1 (11724087_x_at) / RFU OASL (11726364_x_at) / Fold change /veh OASL (11726364_x_at) / RFU SOX15 (11748057_x_at) / Fold change /veh SOX15 (11748057_x_at) / RFU CD79A (11719716_a_at) / Fold change /veh CD79A (11719716_a_at) / RFU HIST1H1D (11736915_at) / Fold change /veh HIST1H1D (11736915_at) / RFU CASKIN2 (11723855_a_at) / Fold change /veh CASKIN2 (11723855_a_at) / RFU LOC730098 (11760151_x_at) / Fold change /veh LOC730098 (11760151_x_at) / RFU OR4N2 (11742367_at) / Fold change /veh OR4N2 (11742367_at) / RFU PRRT2 (11749266_a_at) / Fold change /veh PRRT2 (11749266_a_at) / RFU SNX32 (11753110_a_at) / Fold change /veh SNX32 (11753110_a_at) / RFU CDHR5 (11726645_a_at) / Fold change /veh CDHR5 (11726645_a_at) / RFU RCAN1 (11760418_a_at) / Fold change /veh RCAN1 (11760418_a_at) / RFU FAM167A (11723789_a_at) / Fold change /veh FAM167A (11723789_a_at) / RFU FAM26E (11764081_at) / Fold change /veh FAM26E (11764081_at) / RFU ISYNA1 (11749810_s_at) / Fold change /veh ISYNA1 (11749810_s_at) / RFU ACY1 (11761880_at) / Fold change /veh ACY1 (11761880_at) / RFU 11764098_at / Fold change /veh 11764098_at / RFU SAMD14 (11745864_x_at) / Fold change /veh SAMD14 (11745864_x_at) / RFU NPB (11741838_a_at) / Fold change /veh NPB (11741838_a_at) / RFU TMPRSS6 (11731388_a_at) / Fold change /veh TMPRSS6 (11731388_a_at) / RFU KRTAP10-2 (11738614_at) / Fold change /veh KRTAP10-2 (11738614_at) / RFU ARHGAP8 /// PRR5-ARHGAP8 (11727945_x_at) / Fold change /veh ARHGAP8 /// PRR5-ARHGAP8 (11727945_x_at) / RFU KRTAP5-7 /// NADSYN1 (11734609_at) / Fold change /veh KRTAP5-7 /// NADSYN1 (11734609_at) / RFU RASL12 (11751679_a_at) / Fold change /veh RASL12 (11751679_a_at) / RFU CDKN2B (11736163_a_at) / Fold change /veh CDKN2B (11736163_a_at) / RFU PRF1 (11729649_at) / Fold change /veh PRF1 (11729649_at) / RFU, ZNF638 /// ZNF638-IT1 / Fold change vs veh, ZNF638 /// ZNF638-IT1 / RFU, PANK3 / Fold change vs veh, PANK3 / RFU, SH3YL1 / Fold change vs veh, SH3YL1 / RFU, ZEB2 / Fold change vs veh, ZEB2 / RFU, NRIP1 / Fold change vs veh, NRIP1 / RFU, PTTG1IP / Fold change vs veh, PTTG1IP / RFU, CAPN2 / Fold change vs veh, CAPN2 / RFU, MED14 / Fold change vs veh, MED14 / RFU, SNORA58 / Fold change vs veh, SNORA58 / RFU, C1orf63 / Fold change vs veh, C1orf63 / RFU, LRRFIP1 / Fold change vs veh, LRRFIP1 / RFU, NDUFAF7 / Fold change vs veh, NDUFAF7 / RFU, SLC12A2 / Fold change vs veh, SLC12A2 / RFU, IBTK / Fold change vs veh, IBTK / RFU, ESF1 / Fold change vs veh, ESF1 / Fold change vs veh, TMEM50B / RFU, TAOK1 / Fold change vs veh, TAOK1 / RFU, ACBD3 / Fold change vs veh, ACBD3 / RFU, TMA16 / Fold change vs veh, TMA16 / RFU, RWDD3 / Fold change vs veh, RWDD3 / RFU, BCAT1 / Fold change vs veh, BCAT1 / RFU, EDEM3 / Fold change vs veh, EDEM3 / RFU, TMEM33 / Fold change vs veh, TMEM33 / RFU, WDR75 / Fold change vs veh, WDR75 / RFU, AHCTF1 / Fold change vs veh, AHCTF1 / RFU, TFRC / Fold change vs veh, TFRC / RFU, ZDHHC17 / Fold change vs veh, ZDHHC17 / RFU, NOM1 / Fold change vs veh, NOM1 / RFU, ARL8B / Fold change vs veh, ARL8B / RFU, ZBTB11 / Fold change vs veh, ZBTB11 / RFU, TAMM41 / Fold change vs veh, TAMM41 / RFU, KIAA1704 /// LOC100996395 / Fold change vs veh, KIAA1704 /// LOC100996395 / RFU, ING1 / Fold change vs veh, ING1 / RFU, TRMT61B / Fold change vs veh, TRMT61B / RFU, FUBP3 / Fold change vs veh, FUBP3 / RFU, TP53 / Fold change vs veh, TP53 / RFU, TNKS2 / Fold change vs veh, TNKS2 / RFU, ZFP14 / Fold change vs veh, ZFP14 / RFU, ACTR2 / Fold change vs veh, ACTR2 / RFU, PPP3R1 / Fold change vs veh, PPP3R1 / RFU, PIK3R1 / Fold change vs veh, PIK3R1 / RFU, HNRNPA1 / Fold change vs veh, HNRNPA1 / RFU, RNF170 / Fold change vs veh, RNF170 / RFU, ZNF28 / Fold change vs veh, ZNF28 / RFU, RNGTT / Fold change vs veh, RNGTT / RFU, OGT / Fold change vs veh, OGT / RFU, BRD1 / Fold change vs veh, BRD1 / RFU, MARS / Fold change vs veh, MARS / RFU, ZNF655 / Fold change vs veh, ZNF655 / RFU, FAHD1 / Fold change vs veh, FAHD1 / RFU, BDP1 / Fold change vs veh, BDP1 / RFU, LRRCC1 / Fold change vs veh, LRRCC1 / RFU, ARID1A / Fold change vs veh, ARID1A / RFU, ZNF146 / Fold change vs veh, ZNF146 / RFU, ZNF330 / Fold change vs veh, ZNF330 / RFU, GPN3 / Fold change vs veh, GPN3 / RFU, C9orf123 / Fold change vs veh, C9orf123 / RFU, N4BP2L2 / Fold change vs veh, N4BP2L2 / RFU, ARFIP1 / Fold change vs veh, ARFIP1 / RFU, FAM179B / Fold change vs veh, FAM179B / RFU, BCL10 / Fold change vs veh, BCL10 / RFU, UHRF1BP1L / Fold change vs veh, UHRF1BP1L / RFU, BET1 / Fold change vs veh, BET1 / RFU, CNOT2 / Fold change vs veh, CNOT2 / RFU, ZNF268 / Fold change vs veh, ZNF268 / Fold change vs veh, ZNF507 / RFU, DGCR2 / Fold change vs veh, DGCR2 / RFU, WDSUB1 / Fold change vs veh, WDSUB1 / Fold change vs veh, HSP90B1 /// MIR3652 / RFU, ADSS / Fold change vs veh, ADSS / RFU, GK / Fold change vs veh, GK / RFU, ZNF148 / Fold change vs veh, ZNF148 / RFU, TAF9 / Fold change vs veh, TAF9 / RFU, SLC1A5 / Fold change vs veh, SLC1A5 / RFU, SLMO2 / Fold change vs veh, SLMO2 / RFU, ABCC4 / Fold change vs veh, ABCC4 / RFU, LOC101060439 /// RAP1B / Fold change vs veh, LOC101060439 /// RAP1B / RFU, RFX7 / Fold change vs veh, RFX7 / RFU, GTPBP10 / Fold change vs veh, GTPBP10 / RFU, CNEP1R1 / Fold change vs veh, CNEP1R1 / RFU, BIVM-ERCC5 /// ERCC5 / Fold change vs veh, BIVM-ERCC5 /// ERCC5 / RFU, ILF3 / Fold change vs veh, ILF3 / RFU 11762660_at / Fold change /veh 11762660_at / RFU VCAN (11757783_s_at) / Fold change /veh VCAN (11757783_s_at) / RFU DDX43 (11728927_at) / Fold change /veh DDX43 (11728927_at) / RFU KRT8 (11758188_x_at) / Fold change /veh KRT8 (11758188_x_at) / RFU NKD1 (11759106_at) / Fold change /veh NKD1 (11759106_at) / RFU SRD5A1 (11742802_a_at) / Fold change /veh SRD5A1 (11742802_a_at) / RFU TPSAB1 /// TPSB2 (11721975_s_at) / Fold change /veh TPSAB1 /// TPSB2 (11721975_s_at) / RFU GSTM3 (11746129_a_at) / Fold change /veh GSTM3 (11746129_a_at) / RFU IL23R (11737362_x_at) / Fold change /veh IL23R (11737362_x_at) / RFU TMEM51 (11727254_a_at) / Fold change /veh TMEM51 (11727254_a_at) / RFU PIWIL2 (11732686_x_at) / Fold change /veh PIWIL2 (11732686_x_at) / RFU ORM1 (11744905_x_at) / Fold change /veh ORM1 (11744905_x_at) / RFU CCDC152 (11743942_at) / Fold change /veh CCDC152 (11743942_at) / RFU ECM1 (11717891_a_at) / Fold change /veh ECM1 (11717891_a_at) / RFU IL23R (11748794_a_at) / Fold change /veh IL23R (11748794_a_at) / RFU TNFAIP8L3 (11732012_x_at) / Fold change /veh TNFAIP8L3 (11732012_x_at) / RFU MBOAT4 (11741988_at) / Fold change /veh MBOAT4 (11741988_at) / RFU 11764193_at / Fold change /veh 11764193_at / RFU TMEM53 (11763286_at) / Fold change /veh TMEM53 (11763286_at) / RFU MAGEB2 (11727129_at) / Fold change /veh MAGEB2 (11727129_at) / RFU TMEM200A (11744735_a_at) / Fold change /veh TMEM200A (11744735_a_at) / RFU CCDC152 (11751479_a_at) / Fold change /veh CCDC152 (11751479_a_at) / RFU FAM211A (11726209_a_at) / Fold change /veh FAM211A (11726209_a_at) / RFU RGS16 (11746705_a_at) / Fold change /veh RGS16 (11746705_a_at) / RFU VCAN (11755009_s_at) / Fold change /veh VCAN (11755009_s_at) / RFU RHOB (11743442_s_at) / Fold change /veh RHOB (11743442_s_at) / RFU RGS16 (11720943_a_at) / Fold change /veh RGS16 (11720943_a_at) / RFU RGS16 (11720944_at) / Fold change /veh RGS16 (11720944_at) / RFU, VPS4B / Fold change vs veh, VPS4B / RFU, CREB1 / Fold change vs veh, CREB1 / RFU, DNAJC13 / Fold change vs veh, DNAJC13 / RFU, GNAQ / Fold change vs veh, GNAQ / RFU, CDK5R1 / Fold change vs veh, CDK5R1 / RFU, ZRANB3 / Fold change vs veh, ZRANB3 / RFU, CUL4A / Fold change vs veh, CUL4A / RFU, CCNY / Fold change vs veh, CCNY / RFU, UFL1 / Fold change vs veh, UFL1 / RFU, COG3 / Fold change vs veh, COG3 / RFU, DIAPH2 / Fold change vs veh, DIAPH2 / RFU, SKA2 / Fold change vs veh, SKA2 / RFU, AFF3 / Fold change vs veh, AFF3 / RFU, LMF1 / Fold change vs veh, LMF1 / RFU, IPO11 / Fold change vs veh, IPO11 / RFU, DFFB / Fold change vs veh, DFFB / RFU, FOXP1 / Fold change vs veh, FOXP1 / RFU, CARD8 / Fold change vs veh, CARD8 / RFU, STRN3 / Fold change vs veh, STRN3 / RFU, ADK / Fold change vs veh, ADK / RFU, RASSF2 / Fold change vs veh, RASSF2 / RFU, WIPF1 / Fold change vs veh, WIPF1 / RFU, LARP1B / Fold change vs veh, LARP1B / RFU, RASA1 / Fold change vs veh, RASA1 / RFU, RB1 / Fold change vs veh, RB1 / RFU, PPFIA1 / Fold change vs veh, PPFIA1 / RFU, MAT2A / Fold change vs veh, MAT2A / RFU, CCT5 / Fold change vs veh, CCT5 / RFU, WDR92 / Fold change vs veh, WDR92 / RFU, CUX1 / Fold change vs veh, CUX1 / RFU, TTC7A / Fold change vs veh, TTC7A / RFU, TMEM135 / Fold change vs veh, TMEM135 / RFU, DEPTOR / Fold change vs veh, DEPTOR / RFU, CPM / Fold change vs veh, CPM / RFU, DNAJB6 / Fold change vs veh, DNAJB6 / RFU, CACNA2D3 / Fold change vs veh, CACNA2D3 / RFU, DTX4 / Fold change vs veh, DTX4 / RFU, TFCP2 / Fold change vs veh, TFCP2 / RFU, GMCL1 /// GMCL1P1 / Fold change vs veh, GMCL1 /// GMCL1P1 / RFU, AEBP2 / Fold change vs veh, AEBP2 / RFU, SNHG1 /// SNORD22 /// SNORD25 /// SNORD26 /// SNORD27 /// SNORD28 /// SNORD29 /// SNORD31 / Fold change vs veh, SNHG1 /// SNORD22 /// SNORD25 /// SNORD26 /// SNORD27 /// SNORD28 /// SNORD29 /// SNORD31 / Fold change (Aza/veh), C12orf56 (ProbeSet 11735607_a_at) / Fold change (ACY-1035/veh), C12orf56 (ProbeSet 11735607_a_at) / Fold change (Aza/veh), FGFR1OP (ProbeSet 11751329_s_at) / Fold change (ACY-1035/veh), FGFR1OP (ProbeSet 11751329_s_at) / Fold change (Aza/veh), VPS36 (ProbeSet 11739960_a_at) / Fold change (ACY-1035/veh), VPS36 (ProbeSet 11739960_a_at) / RFU SYPL1 (11715823_x_at) / Fold change /veh SYPL1 (11715823_x_at) / RFU IGFBP7 (11715501_s_at) / Fold change /veh IGFBP7 (11715501_s_at) / RFU REEP3 (11722064_at) / Fold change /veh REEP3 (11722064_at) / RFU IGLL1 (11728026_x_at) / Fold change /veh IGLL1 (11728026_x_at): dose or concentration left out as unconfirmed
Conditions: ProbeSet 11716931_at; LIST B

Nc1ncn([C@@H]2O[C@H](CO)[C@@H](O)[C@H]2O)c(=O)n1 [azacitidine]
RFU, DGCR2: 177.81 RFU
